{"source": "patent US8192962B2", "about": "“Processes for detecting toxic substances” (Daikin Industries, Ltd., priority 2001, dated 2012)", "tested_on": "Energy system protein genes", "assay": "DNA chip mRNA expression in yeast, energy system protein genes (Table 4)", "assay_type": "cell-based, Saccharomyces cerevisiae S288C", "method_in_brief": "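Measured as treated-to-untreated fluorescence ratio on a full-genome yeast DNA chip. Cells (S288C, YPD, 25° C.) were exposed in log phase for two hours to one chemical, dosed to curb growth without killing.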"}
{"smiles": "S=C([S-])NCCNC(=S)[S-].[Zn+2]", "note": "[(11), zinc N,N′-ethylenebis(dithiocarbamate)]", "values": [{"measurement": "The level of expressed mRNA in the presence of chemical substance/The level of expressed mRNA in the absence of chemical substance", "setting": "yeast gene YJL166W, cells incubated two hours with the chemical substance", "value": 1.4}, {"measurement": "The level of expressed mRNA in the presence of chemical substance/The level of expressed mRNA in the absence of chemical substance", "setting": "yeast gene YJL216C, cells incubated two hours with the chemical substance", "value": 1.1}, {"measurement": "The level of expressed mRNA in the presence of chemical substance/The level of expressed mRNA in the absence of chemical substance", "setting": "yeast gene YJR009C", "value": 1.1}, {"measurement": "The level of expressed mRNA in the presence of chemical substance/The level of expressed mRNA in the absence of chemical substance", "setting": "yeast gene YJR048W", "value": 1.0}, {"measurement": "The level of expressed mRNA in the presence of chemical substance/The level of expressed mRNA in the absence of chemical substance", "setting": "yeast gene YJR121W, cells incubated two hours with the chemical substance", "value": 0.9}, {"measurement": "The level of expressed mRNA in the presence of chemical substance/The level of expressed mRNA in the absence of chemical substance", "setting": "yeast gene YJR155W", "value": 15.4}, {"measurement": "The level of expressed mRNA in the presence of chemical substance/The level of expressed mRNA in the absence of chemical substance", "setting": "yeast gene YKL016C, cells incubated two hours with the chemical substance", "value": 1.3}, {"measurement": "The level of expressed mRNA in the presence of chemical substance/The level of expressed mRNA in the absence of chemical substance", "setting": "yeast gene YKL060C, cells incubated two hours with the chemical substance", "value": 2.1}, {"measurement": "The level of expressed mRNA in the presence of chemical substance/The level of expressed mRNA in the absence of chemical substance", "setting": "yeast gene YKL141W, cells incubated two hours with the chemical substance", "value": 1.2}, {"measurement": "The level of expressed mRNA in the presence of chemical substance/The level of expressed mRNA in the absence of chemical substance", "setting": "yeast gene YKL148C, cells incubated two hours with the chemical substance", "value": 1.5}, {"measurement": "The level of expressed mRNA in the presence of chemical substance/The level of expressed mRNA in the absence of chemical substance", "setting": "yeast gene YKR009C, cells incubated two hours with the chemical substance", "value": 1.2}, {"measurement": "The level of expressed mRNA in the presence of chemical substance/The level of expressed mRNA in the absence of chemical substance", "setting": "yeast gene YKR058W, cells incubated two hours with the chemical substance, 25° C., YPD medium", "value": 1.5}, {"measurement": "The level of expressed mRNA in the presence of chemical substance/The level of expressed mRNA in the absence of chemical substance", "setting": "yeast gene YKR097W", "value": 0.8}, {"measurement": "The level of expressed mRNA in the presence of chemical substance/The level of expressed mRNA in the absence of chemical substance", "setting": "yeast gene YLL041C, cells incubated two hours with the chemical substance", "value": 1.3}, {"measurement": "The level of expressed mRNA in the presence of chemical substance/The level of expressed mRNA in the absence of chemical substance", "setting": "yeast gene YLR038C, cells incubated two hours with the chemical substance", "value": 1.4}, {"measurement": "The level of expressed mRNA in the presence of chemical substance/The level of expressed mRNA in the absence of chemical substance", "setting": "yeast gene YLR044C, cells incubated two hours with the chemical substance", "value": 1.1}, {"measurement": "The level of expressed mRNA in the presence of chemical substance/The level of expressed mRNA in the absence of chemical substance", "setting": "yeast gene YLR134W, cells incubated two hours with the chemical substance", "value": 1.1}, {"measurement": "The level of expressed mRNA in the presence of chemical substance/The level of expressed mRNA in the absence of chemical substance", "setting": "yeast gene YLR258W, cells incubated two hours with the chemical substance", "value": 1.2}, {"measurement": "The level of expressed mRNA in the presence of chemical substance/The level of expressed mRNA in the absence of chemical substance", "setting": "yeast gene YLR284C, cells incubated two hours with the chemical substance", "value": 1.5}, {"measurement": "The level of expressed mRNA in the presence of chemical substance/The level of expressed mRNA in the absence of chemical substance", "setting": "yeast gene YLR295C, cells incubated two hours with the chemical substance, 25° C., YPD medium", "value": 1.3}, {"measurement": "The level of expressed mRNA in the presence of chemical substance/The level of expressed mRNA in the absence of chemical substance", "setting": "yeast gene YLR304C, cells incubated two hours with the chemical substance", "value": 1.6}, {"measurement": "The level of expressed mRNA in the presence of chemical substance/The level of expressed mRNA in the absence of chemical substance", "setting": "yeast gene YLR345W", "value": 2.5}, {"measurement": "The level of expressed mRNA in the presence of chemical substance/The level of expressed mRNA in the absence of chemical substance", "setting": "yeast gene YLR354C, cells incubated two hours with the chemical substance", "value": 1.7}, {"measurement": "The level of expressed mRNA in the presence of chemical substance/The level of expressed mRNA in the absence of chemical substance", "setting": "yeast gene YLR377C, cells incubated two hours with the chemical substance", "value": 0.6}, {"measurement": "The level of expressed mRNA in the presence of chemical substance/The level of expressed mRNA in the absence of chemical substance", "setting": "yeast gene YLR395C, cells incubated two hours with the chemical substance", "value": 1.5}, {"measurement": "The level of expressed mRNA in the presence of chemical substance/The level of expressed mRNA in the absence of chemical substance", "setting": "yeast gene YML087C", "value": 1.6}, {"measurement": "The level of expressed mRNA in the presence of chemical substance/The level of expressed mRNA in the absence of chemical substance", "setting": "yeast gene YML120C, cells incubated two hours with the chemical substance", "value": 1.3}, {"measurement": "The level of expressed mRNA in the presence of chemical substance/The level of expressed mRNA in the absence of chemical substance", "setting": "yeast gene YML129C, cells incubated two hours with the chemical substance", "value": 1.2}, {"measurement": "The level of expressed mRNA in the presence of chemical substance/The level of expressed mRNA in the absence of chemical substance", "setting": "yeast gene YMR073C, cells incubated two hours with the chemical substance", "value": 0.9}, {"measurement": "The level of expressed mRNA in the presence of chemical substance/The level of expressed mRNA in the absence of chemical substance", "setting": "yeast gene YMR118C", "value": 0.7}, {"measurement": "The level of expressed mRNA in the presence of chemical substance/The level of expressed mRNA in the absence of chemical substance", "setting": "yeast gene YMR205C, cells incubated two hours with the chemical substance", "value": 1.0}, {"measurement": "The level of expressed mRNA in the presence of chemical substance/The level of expressed mRNA in the absence of chemical substance", "setting": "yeast gene YMR261C, cells incubated two hours with the chemical substance", "value": 0.8}, {"measurement": "The level of expressed mRNA in the presence of chemical substance/The level of expressed mRNA in the absence of chemical substance", "setting": "yeast gene YMR267W, cells incubated two hours with the chemical substance, 25° C., YPD medium", "value": 1.0}, {"measurement": "The level of expressed mRNA in the presence of chemical substance/The level of expressed mRNA in the absence of chemical substance", "setting": "yeast gene YMR323W, cells incubated two hours with the chemical substance", "value": 2.5}, {"measurement": "The level of expressed mRNA in the presence of chemical substance/The level of expressed mRNA in the absence of chemical substance", "setting": "yeast gene YNL071W", "value": 1.6}, {"measurement": "The level of expressed mRNA in the presence of chemical substance/The level of expressed mRNA in the absence of chemical substance", "setting": "yeast gene YNL202W, cells incubated two hours with the chemical substance", "value": 1.2}, {"measurement": "The level of expressed mRNA in the presence of chemical substance/The level of expressed mRNA in the absence of chemical substance", "setting": "yeast gene YNL241C", "value": 3.0}, {"measurement": "The level of expressed mRNA in the presence of chemical substance/The level of expressed mRNA in the absence of chemical substance", "setting": "yeast gene YNL331C", "value": 21.8}, {"measurement": "The level of expressed mRNA in the presence of chemical substance/The level of expressed mRNA in the absence of chemical substance", "setting": "yeast gene YOL086C, cells incubated two hours with the chemical substance", "value": 2.6}, {"measurement": "The level of expressed mRNA in the presence of chemical substance/The level of expressed mRNA in the absence of chemical substance", "setting": "yeast gene YOL165C", "value": 17.6}, {"measurement": "The level of expressed mRNA in the presence of chemical substance/The level of expressed mRNA in the absence of chemical substance", "setting": "yeast gene YOR142W, cells incubated two hours with the chemical substance", "value": 1.5}, {"measurement": "The level of expressed mRNA in the presence of chemical substance/The level of expressed mRNA in the absence of chemical substance", "setting": "yeast gene YOR178C, cells incubated two hours with the chemical substance", "value": 4.1}, {"measurement": "The level of expressed mRNA in the presence of chemical substance/The level of expressed mRNA in the absence of chemical substance", "setting": "yeast gene YOR388C, cells incubated two hours with the chemical substance", "value": 1.3}, {"measurement": "The level of expressed mRNA in the presence of chemical substance/The level of expressed mRNA in the absence of chemical substance", "setting": "yeast gene YPL031C, cells incubated two hours with the chemical substance", "value": 1.4}, {"measurement": "The level of expressed mRNA in the presence of chemical substance/The level of expressed mRNA in the absence of chemical substance", "setting": "yeast gene YPL061W, cells incubated two hours with the chemical substance", "value": 1.1}, {"measurement": "The level of expressed mRNA in the presence of chemical substance/The level of expressed mRNA in the absence of chemical substance", "setting": "yeast gene YPL088W", "value": 1.1}, {"measurement": "The level of expressed mRNA in the presence of chemical substance/The level of expressed mRNA in the absence of chemical substance", "setting": "yeast gene YPL171C", "value": 37.0}, {"measurement": "The level of expressed mRNA in the presence of chemical substance/The level of expressed mRNA in the absence of chemical substance", "setting": "yeast gene YPL240C", "value": 1.0}, {"measurement": "The level of expressed mRNA in the presence of chemical substance/The level of expressed mRNA in the absence of chemical substance", "setting": "yeast gene YPL262W, cells incubated two hours with the chemical substance", "value": 1.4}, {"measurement": "The level of expressed mRNA in the presence of chemical substance/The level of expressed mRNA in the absence of chemical substance", "setting": "yeast gene YPL275W, cells incubated two hours with the chemical substance", "value": 0.9}, {"measurement": "The level of expressed mRNA in the presence of chemical substance/The level of expressed mRNA in the absence of chemical substance", "setting": "yeast gene YPL276W, cells incubated two hours with the chemical substance", "value": "−0.4"}, {"measurement": "The level of expressed mRNA in the presence of chemical substance/The level of expressed mRNA in the absence of chemical substance", "setting": "yeast gene YPR048W, cells incubated two hours with the chemical substance", "value": 1.0}, {"measurement": "The level of expressed mRNA in the presence of chemical substance/The level of expressed mRNA in the absence of chemical substance", "setting": "yeast gene YPR184W, cells incubated two hours with the chemical substance", "value": 3.6}]}
